The target in assay [1] is PIK3CA (human) (UniProt P42336). Put plainly: Inhibition of PIK3CA Kinase Activity.
In assay [2] the target is PIK3CD (Human) (UniProt O00329). Put plainly: Enzyme Assay.

“And” between values parts separate entries of the source, which are not always exact repeats. Identical values can stand only once.

Usually IC50 stands for the concentration needed to halve the response being measured.

PIK3CA (human), sequence (P42336 whole entry, looked up): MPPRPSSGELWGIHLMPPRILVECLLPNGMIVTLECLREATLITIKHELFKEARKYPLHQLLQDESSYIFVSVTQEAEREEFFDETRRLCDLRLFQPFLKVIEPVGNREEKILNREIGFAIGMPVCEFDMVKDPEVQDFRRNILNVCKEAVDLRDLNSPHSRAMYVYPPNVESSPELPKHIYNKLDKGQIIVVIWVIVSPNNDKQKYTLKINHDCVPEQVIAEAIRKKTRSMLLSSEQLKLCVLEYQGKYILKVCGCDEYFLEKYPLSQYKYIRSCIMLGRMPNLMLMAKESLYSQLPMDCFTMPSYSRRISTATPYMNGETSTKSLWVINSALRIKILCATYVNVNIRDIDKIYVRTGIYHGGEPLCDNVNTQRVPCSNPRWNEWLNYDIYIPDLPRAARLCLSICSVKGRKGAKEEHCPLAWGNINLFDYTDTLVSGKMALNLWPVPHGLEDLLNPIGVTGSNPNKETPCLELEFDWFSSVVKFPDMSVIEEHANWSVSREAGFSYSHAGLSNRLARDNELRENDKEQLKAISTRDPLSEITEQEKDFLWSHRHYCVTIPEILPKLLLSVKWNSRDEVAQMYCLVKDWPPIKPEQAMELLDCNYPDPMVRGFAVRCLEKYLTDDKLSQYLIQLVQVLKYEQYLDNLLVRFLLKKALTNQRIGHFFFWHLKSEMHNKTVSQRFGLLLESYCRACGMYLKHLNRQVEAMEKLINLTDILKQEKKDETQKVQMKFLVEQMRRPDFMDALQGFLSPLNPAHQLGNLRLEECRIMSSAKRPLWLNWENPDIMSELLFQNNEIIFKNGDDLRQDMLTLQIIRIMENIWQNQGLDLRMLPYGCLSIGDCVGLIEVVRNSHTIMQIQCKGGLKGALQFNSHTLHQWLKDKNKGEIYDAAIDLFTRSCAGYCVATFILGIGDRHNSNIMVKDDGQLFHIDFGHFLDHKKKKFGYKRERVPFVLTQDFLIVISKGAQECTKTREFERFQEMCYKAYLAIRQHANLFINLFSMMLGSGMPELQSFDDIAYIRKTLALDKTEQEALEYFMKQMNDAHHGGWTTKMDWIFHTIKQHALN
PIK3CD (Human), sequence (O00329 whole entry, looked up): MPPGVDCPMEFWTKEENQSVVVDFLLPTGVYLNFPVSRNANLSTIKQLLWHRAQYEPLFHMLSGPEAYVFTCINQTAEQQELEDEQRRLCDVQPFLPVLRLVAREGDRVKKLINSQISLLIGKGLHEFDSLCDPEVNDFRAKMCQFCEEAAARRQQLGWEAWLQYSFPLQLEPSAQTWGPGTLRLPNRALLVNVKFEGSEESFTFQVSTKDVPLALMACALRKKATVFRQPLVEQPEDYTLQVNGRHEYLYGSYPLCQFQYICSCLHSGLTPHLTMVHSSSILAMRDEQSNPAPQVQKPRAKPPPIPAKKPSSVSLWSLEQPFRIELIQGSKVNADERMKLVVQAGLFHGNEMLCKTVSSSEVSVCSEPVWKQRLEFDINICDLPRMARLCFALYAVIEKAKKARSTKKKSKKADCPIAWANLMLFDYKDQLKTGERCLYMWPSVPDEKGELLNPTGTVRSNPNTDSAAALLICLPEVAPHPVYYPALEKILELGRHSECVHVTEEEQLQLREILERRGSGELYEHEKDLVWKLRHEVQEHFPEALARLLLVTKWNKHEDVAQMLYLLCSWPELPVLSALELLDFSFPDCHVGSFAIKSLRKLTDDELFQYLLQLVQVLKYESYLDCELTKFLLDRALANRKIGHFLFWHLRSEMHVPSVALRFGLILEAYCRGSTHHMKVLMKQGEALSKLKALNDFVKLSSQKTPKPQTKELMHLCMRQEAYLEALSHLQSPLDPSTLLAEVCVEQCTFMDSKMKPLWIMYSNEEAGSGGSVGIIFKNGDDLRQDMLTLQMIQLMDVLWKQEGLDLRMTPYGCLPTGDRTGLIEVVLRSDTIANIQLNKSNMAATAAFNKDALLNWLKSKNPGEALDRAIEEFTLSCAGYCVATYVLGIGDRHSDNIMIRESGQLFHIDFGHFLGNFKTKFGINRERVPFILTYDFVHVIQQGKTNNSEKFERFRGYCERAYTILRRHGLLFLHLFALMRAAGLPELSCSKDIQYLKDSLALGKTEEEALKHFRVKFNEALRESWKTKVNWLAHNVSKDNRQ

On to `Cc1nc(-c2cn3c(n2)-c2ccc(-c4cnn(C)c4C4CN(C(C)C)CCO4)cc2OCC3)n(C(C)C)n1` (stereo not drawn), for which the IC50 was 17.9 nM and 107 nM and 41.5 nM in assay [1]; 1.2 nM and 1.08 nM in assay [2].
Molecule `Cc1nc(-c2cn3c(n2)-c2cc([C@H](C)N4CCN(C(C)(C)C)CC4)ncc2OCC3)n(C(C)C)n1` came in with an IC50 in assay [1] of 217 nM.
On the same count and under the same terms, then `Cc1nc(-c2cn3c(n2)-c2cc([C@H](C)N4CCN(C(C)C)CC4)c(F)cc2OCC3)n(C(C)C)n1`, with 59.9 nM.
Take `CC(C)n1ncnc1-c1cn2c(n1)-c1cnc(N3CCCC3CN3CCCC3)cc1OCC2` (stereo not drawn): the IC50 in assay [1] is 12.9 nM.
Consider `Cc1nc(-c2cn3c(n2)-c2cnc(N4CCCC4C4CCCCN4C)cc2OCC3)n(CC(F)(F)F)n1` (stereo not drawn), for which the half-maximal inhibitory concentration (IC50) in assay [1] is 1.85 nM and 1.9 nM.
On the same count and under the same terms, the figure for `Cc1nc(-c2cn3c(n2)-c2ccc(-c4ccnn4C4CC(C)N(C)C(C)C4)cc2OCC3)n(C(C)C)n1` (stereo not drawn) is 100 nM.
`Cc1nc(-c2cn3c(n2)-c2ccc(N4CCC4C4CCN(C)CC4)cc2OCC3)n(C(C)C)n1` (stereo not drawn): the half-inhibitory concentration (IC50) in assay [1] is 21.5 nM and 45.4 nM and 11.8 nM.
As to `CC(Oc1ccc2c(c1)OCCn1cc(-c3ncnn3C(C)C)nc1-2)C1CCN(C(C)C)CC1` (stereo not drawn), the IC50 in assay [1] came out at 6.36 nM.
Still for that read-out and setting: then `Cc1nc(-c2cn3c(n2)-c2cc([C@@H](C)N4CCN(C(C)C)CC4)c(F)cc2OCC3)n(C(C)C)n1`, with 169 nM; and `CCN1CCC(C2CCCN2c2ccc3c(c2)OCCn2cc(-c4nc(C)nn4C(C)C)nc2-3)CC1` (stereo not drawn), with 18.9 nM; and `Cc1nc(-c2cn3c(n2)-c2ccc(-c4cn(C)nc4C4CCCN(C(C)C)C4)cc2OCC3)n(C(C)C)n1` (stereo not drawn), with 28.4 nM.
The same measure, in the same setting: then `Cc1nc(-c2cn3c(n2)-c2cc(C(=O)N4CCN(C(C)(C)C)CC4)c(F)cc2OCC3)n(C(C)C)n1`, with 191 nM.
For the molecule `Cc1nc(-c2cn3c(n2)-c2ccc(OC4(CC5CC5)CN(C(C)C)C4)cc2OCC3)n(C(C)C)n1`, the 50% inhibitory concentration (IC50) in assay [1] stood at 70.7 nM. Compared with the last molecule, the IC50 is about 2.7-fold lower.
Turning to `Cc1nc(-c2cn3c(n2)-c2ccc(OC4(c5ccccc5)CN(C(C)C)C4)cc2OCC3)n(C(C)C)n1`, the IC50 in assay [1] was found to be 105 nM.
In the case of `Cc1nc(-c2cn3c(n2)-c2cc(C(C)N4CCN(C5COC5)CC4)c(C)cc2OCC3)n(C(C)C)n1` (stereo not drawn), in assay [1], the concentration for half-maximal inhibition (IC50) is 126 nM. This IC50 and that of the molecule before are within 1.5-fold of each other.
For `Cc1nc(-c2cn3c(n2)-c2ccc(N4CCCC45CCCN(C)C5)cc2OCC3)n(C(C)C)n1` (stereo not drawn), the IC50 in assay [1] is 12.9 nM and 5.23 nM and 16.8 nM.
Still for that read-out and setting: the figure for `Cc1nc(-c2cn3c(n2)-c2ccc(N4CCC4[C@@H]4CCCN(C(C)C)C4)cc2OCC3)n(C(C)C)n1` (stereo partly drawn) is 3.41 nM.

The values above are taken from the Kinase Knowledgebase extract (Sharma et al. 2016).
